Data as given in patent publication US9284333B2, “Fused pyrroledicarboxamides and their use as pharmaceuticals” (SANOFI, priority 2012, dated 2016).

Target: Human TASK-1 channels (Homo sapiens (Human), UniProt O14649)
Test: Determination of the activity on the TASK-1 channel in Xenopus oocytes (two-microelectrode voltage clamp)
Assay type: cell-based
Settings: for inhibition at 5 µM: compound concentration 5 μM; for IC50: human TASK-1 expressed in Xenopus oocytes, room temperature, read-out: IC50 value for TASK-1 inhibition
In short: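 Xenopus oocytes were injected with human TASK-1 cRNA and recorded two days later by two-microelectrode voltage clamp, holding at −90 mV with 500 ms steps to 40 mV. Superfusion used ND96, pH 7.4, at room temperature, with rising compound concentrations; percentage inhibition of control current was fitted to a dose-response curve for IC50.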

Human TASK-1 channels, sequence (O14649 whole entry): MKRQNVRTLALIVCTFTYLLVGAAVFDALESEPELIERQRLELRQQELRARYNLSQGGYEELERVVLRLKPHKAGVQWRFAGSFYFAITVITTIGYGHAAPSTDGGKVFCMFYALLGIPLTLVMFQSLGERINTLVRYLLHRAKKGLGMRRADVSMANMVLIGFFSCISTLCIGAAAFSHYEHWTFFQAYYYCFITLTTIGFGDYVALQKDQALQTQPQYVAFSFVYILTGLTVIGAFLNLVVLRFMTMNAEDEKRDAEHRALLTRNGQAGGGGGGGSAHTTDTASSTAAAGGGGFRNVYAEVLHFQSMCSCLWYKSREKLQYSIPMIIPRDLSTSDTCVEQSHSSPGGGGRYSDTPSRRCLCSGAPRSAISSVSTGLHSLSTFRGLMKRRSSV

inhibition at 5 µM | IC50 | Structure (SMILES)
63% | – | CC[C@H](NC(=O)c1cc(C(=O)N2CCC[C@@H]2C)n2c1COCC2)c1ccc(C(F)(F)F)c(F)c1 [16bn, 6-((S)-2-Methyl-pyrrolidine-1-carbonyl)-3,4-dihydro-1H-pyrrolo[2,1-c][1,4]oxazine-8-carboxylic acid [(S)-1-(3-fluoro-4-trifluoromethyl-phenyl)-propyl]-amide]
– | 920 nM | CC[C@@H](NC(=O)c1cc(C(=O)N2CCCC2c2ccn(C)n2)n2c1COCC2)c1ccccc1 (stereo partly drawn) [16fv, 6-[2-(1-Methyl-1H-pyrazol-3-yl)-pyrrolidine-1-carbonyl]-3,4-dihydro-1H-pyrrolo[2,1-c][1,4]oxazine-8-carboxylic acid ((R)-1-phenyl-propyl)-amide]
– | 90 nM | CC[C@@H](NC(=O)c1cc(C(=O)N2CCC[C@@H]2C)c2n1CCOC2)c1ccccc1Cl [16nh, 8-((S)-2-Methyl-pyrrolidine-1-carbonyl)-3,4-dihydro-1H-pyrrolo[2,1-c][1,4]oxazine-6-carboxylic acid [(R)-1-(2-chloro-phenyl)-propyl]-amide]
– | 67 nM | CC[C@H](NC(=O)c1cc(C(=O)N[C@@H](c2ccc(F)cc2)C(C)C)c2n1CCOC2)c1ccccc1 [16jq, 3,4-Dihydro-1H-pyrrolo[2,1-c][1,4]oxazine-6,8-dicarboxylic acid 8-{[(R)-1-(4-fluoro-phenyl)-2-methyl-propyl]-amide} 6-[((S)-1-phenyl-propyl)-amide]]
– | 5200 nM | CC[C@@H](NC(=O)c1cc(C(=O)N2CCC[C@@H]2CNC(C)=O)n2c1COCC2)c1ccccc1 [16fh, 6-[(R)-2-(Acetylamino-methyl)-pyrrolidine-1-carbonyl]-3,4-dihydro-1H-pyrrolo[2,1-c][1,4]oxazine-8-carboxylic acid ((R)-1-phenyl-propyl)-amide]
– | 2700 nM | CC[C@@H](NC(=O)c1cc(C(=O)N(C)Cc2ncccn2)n2c1COCC2)c1ccccc1 [16jc, 3,4-Dihydro-1H-pyrrolo[2,1-c][1,4]oxazine-6,8-dicarboxylic acid 6-(methyl-pyrimidin-2-ylmethyl-amide) 8-[((R)-1-phenyl-propyl)-amide]]
– | 880 nM | CC[C@@H](NC(=O)c1cc(C(=O)N2CCC[C@@H]2C)n2c1COCC2)c1cnc(C(F)(F)F)cc1Cl [16br, 6-((S)-2-Methyl-pyrrolidine-1-carbonyl)-3,4-dihydro-1H-pyrrolo[2,1-c][1,4]oxazine-8-carboxylic acid [(R)-1-(4-chloro-6-trifluoromethyl-pyridin-3-yl)-propyl]-amide]
– | 910 nM | CC[C@@H](NC(=O)c1cc(C(=O)N2CCC[C@@H]2C)n2c1COCC2)c1ccc(C#N)cc1F [16ay, 6-((S)-2-Methyl-pyrrolidine-1-carbonyl)-3,4-dihydro-1H-pyrrolo[2,1-c][1,4]oxazine-8-carboxylic acid [(R)-1-(4-cyano-2-fluoro-phenyl)-propyl]-amide]
90% | – | C#CC1CCCN1C(=O)c1cc(C(=O)N[C@H](CC)c2ccccc2)c2n1CCOC2 (stereo partly drawn) [16fx, 6-(2-Ethynyl-pyrrolidine-1-carbonyl)-3,4-dihydro-1H-pyrrolo[2,1-c][1,4]oxazine-8-carboxylic acid ((R)-1-phenyl-propyl)-amide]
– | 530 nM | CC[C@@H](NC(=O)c1cc(C(=O)NCc2ncccn2)n2c1COCC2)c1ccccc1 [16hj, 3,4-Dihydro-1H-pyrrolo[2,1-c][1,4]oxazine-6,8-dicarboxylic acid 8-[((R)-1-phenyl-propyl)-amide] 6-[(pyrimidin-2-ylmethyl)-amide]]
– | 240 nM | CC[C@@H](NC(=O)c1cc(C(=O)N2CCC[C@@H]2C)n2c1COCC2)c1ccc(C#N)c(Cl)c1 [16d, 6-((S)-2-Methyl-pyrrolidine-1-carbonyl)-3,4-dihydro-1H-pyrrolo[2,1-c][1,4]oxazine-8-carboxylic acid [(R)-1-(3-chloro-4-cyano-phenyl)-propyl]-amide]
– | 2000 nM | CC[C@@H](NC(=O)c1cc(C(=O)N2CCC[C@@H]2C)c2n1CCOC2)c1ccc(C#N)nc1 [16nj, 8-((S)-2-Methyl-pyrrolidine-1-carbonyl)-3,4-dihydro-1H-pyrrolo[2,1-c][1,4]oxazine-6-carboxylic acid [(R)-1-(6-cyano-pyridin-3-yl)-propyl]-amide]
– | 1300 nM | CC[C@@H](NC(=O)c1cc(C(=O)N2CCC[C@@H]2C)n2c1COCC2)c1ccc(C#N)cc1 [16ak, 6-((S)-2-Methyl-pyrrolidine-1-carbonyl)-3,4-dihydro-1H-pyrrolo[2,1-c][1,4]oxazine-8-carboxylic acid [(R)-1-(4-cyano-phenyl)-propyl]-amide]
85% | – | CC[C@@H](NC(=O)c1cc(C(=O)N2CCC[C@@H]2C)n2c1COCC2)c1ccc(C)cc1 [16be, 6-((S)-2-Methyl-pyrrolidine-1-carbonyl)-3,4-dihydro-1H-pyrrolo[2,1-c][1,4]oxazine-8-carboxylic acid ((R)-1-p-tolyl-propyl)-amide]
– | 550 nM | CCC(NC(=O)c1cc(C(=O)N2CCC[C@@H]2C)n2c1COCC2)c1ccc(C(C)(F)F)cc1 (stereo partly drawn) [16bc, 6-((S)-2-Methyl-pyrrolidine-1-carbonyl)-3,4-dihydro-1H-pyrrolo[2,1-c][1,4]oxazine-8-carboxylic acid {1-[4-(1,1-difluoro-ethyl)-phenyl]-propyl}-amide]
– | 1000 nM | CC[C@@H](NC(=O)c1cc(C(=O)N2CCC[C@@H]2C)n2c1COCC2)c1cnc(C#N)c(Cl)c1 [16rf, 6-((S)-2-Methyl-pyrrolidine-1-carbonyl)-3,4-dihydro-1H-pyrrolo[2,1-c][1,4]oxazine-8-carboxylic acid [(R)-1-(5-chloro-6-cyano-pyridin-3-yl)-propyl]-amide]
– | 100 nM | CC[C@H](NC(=O)c1cc(C(=O)N[C@H](CC)c2ccccc2)c2n1CCOC2)c1ccccc1 [16hs, 3,4-Dihydro-1H-pyrrolo[2,1-c][1,4]oxazine-6,8-dicarboxylic acid 6-[((S)-1-phenyl-propyl)-amide] 8-[((R)-1-phenyl-propyl)-amide]]
– | 1900 nM | CCC(NC(=O)c1cc(C(=O)N[C@H](CC)c2ccccc2)c2n1CCOC2)c1cccc(S(N)(=O)=O)c1 (stereo partly drawn) [16ji, 3,4-Dihydro-1H-pyrrolo[2,1-c][1,4]oxazine-6,8-dicarboxylic acid 8-[((R)-1-phenyl-propyl)-amide] 6-{[1-(3-sulfamoyl-phenyl)-propyl]-amide}]
– | 320 nM | CC[C@@H](NC(=O)c1cc(C(=O)N2CCCC2c2c(C)noc2C)n2c1COCC2)c1ccccc1 (stereo partly drawn) [16er, 6-[2-(3,5-Dimethyl-isoxazol-4-yl)-pyrrolidine-1-carbonyl]-3,4-dihydro-1H-pyrrolo[2,1-c][1,4]oxazine-8-carboxylic acid ((R)-1-phenyl-propyl)-amide]
– | 1200 nM | CC[C@@H](NC(=O)c1cc(C(=O)N2CCC[C@@H]2C)n2c1COCC2)c1ccncc1Cl [16bw, 6-((S)-2-Methyl-pyrrolidine-1-carbonyl)-3,4-dihydro-1H-pyrrolo[2,1-c][1,4]oxazine-8-carboxylic acid [(R)-1-(3-chloro-pyridin-4-yl)-propyl]-amide]
– | 130 nM | CC[C@@H](NC(=O)c1cc(C(=O)N[C@H](C)c2cnccn2)c2n1CCOC2)c1ccc(F)cc1Cl [16kn, 3,4-Dihydro-1H-pyrrolo[2,1-c][1,4]oxazine-6,8-dicarboxylic acid 6-{[(R)-1-(2-chloro-4-fluoro-phenyl)-propyl]-amide} 8-[((R)-1-pyrazin-2-yl-ethyl)-amide]]
53% | – | CC[C@@H](NC(=O)c1cc(C(=O)N2CCCCC2C)n2c1COCC2)c1ccc(C(F)(F)F)nc1 (stereo partly drawn) [16pc, 6-(2-Methyl-piperidine-1-carbonyl)-3,4-dihydro-1H-pyrrolo[2,1-c][1,4]oxazine-8-carboxylic acid [(R)-1-(6-trifluoromethyl-pyridin-3-yl)-propyl]-amide]
– | 4300 nM | CC[C@@H](NC(=O)c1cc(C(=O)N[C@H](CC)c2cccc(NS(C)(=O)=O)c2)n2c1COCC2)c1ccccc1 [16ri, 3,4-Dihydro-1H-pyrrolo[2,1-c][1,4]oxazine-6,8-dicarboxylic acid 6-{[(R)-1-(3-methanesulfonylamino-phenyl)-propyl]-amide} 8-[((R)-1-phenyl-propyl)-amide]]
– | 240 nM | CC[C@@H](NC(=O)c1cc(C(=O)N2CC[C@H](Oc3ccc(F)cc3)C2)n2c1COCC2)c1ccccc1 [16fu, 6-[(S)-3-(4-Fluoro-phenoxy)-pyrrolidine-1-carbonyl]-3,4-dihydro-1H-pyrrolo[2,1-c][1,4]oxazine-8-carboxylic acid ((R)-1-phenyl-propyl)-amid]
92% | – | CC[C@@H](NC(=O)c1cc(C(=O)N2CCC[C@H]2c2ccccc2)n2c1CCCC2)c1ccccc1 [16mn, 3-((S)-2-Phenyl-pyrrolidine-1-carbonyl)-5,6,7,8-tetrahydro-indolizine-1-carboxylic acid ((R)-1-phenyl-propyl)-amide]
84% | – | C[C@H]1CCCN1C(=O)c1cc(C(=O)NCc2c(Cl)cccc2Cl)c2n1CCOC2 [16ag, 6-((S)-2-Methyl-pyrrolidine-1-carbonyl)-3,4-dihydro-1H-pyrrolo[2,1-c][1,4]oxazine-8-carboxylic acid 2,6-dichloro-benzylamide]
– | 130 nM | CC[C@@H](NC(=O)c1cc(C(=O)N2CCC[C@@H]2COC)c2n1CCOC2)c1ccccc1 [16kk, 8-((R)-2-Methoxymethyl-pyrrolidine-1-carbonyl)-3,4-dihydro-1H-pyrrolo[2,1-c][1,4]oxazine-6-carboxylic acid ((R)-1-phenyl-propyl)-amide]
– | 4100 nM | CC[C@H](NC(=O)c1cc(C(=O)N2CCC[C@@H]2C)n2c1COCC2)c1ccc(C(F)(F)F)nc1 [16bj, 6-((S)-2-Methyl-pyrrolidine-1-carbonyl)-3,4-dihydro-1H-pyrrolo[2,1-c][1,4]oxazine-8-carboxylic acid [(S)-1-(6-trifluoromethyl-pyridin-3-yl)-propyl]-amide]
– | 540 nM | CCOC(=O)[C@H]1CCCN1C(=O)c1cc(C(=O)N[C@H](CC)c2ccccc2)c2n1CCOC2 [16ff]
